According to patent EP4563149A1, “LURBINECTEDIN, ECUBECTEDIN AND A RELATED COMPOUND FOR USE IN THE TREATMENT OF SKIN CANCERS” (Pharma Mar, S.A., priority 2023, dated 2025):
Where two headings read alike, the source gives them in different places.

Tests used:
MM074 and MM029 cells = conditions: MM074 and MM029, 10×IC50 for 8h
Procedure: Purified RNA was subjected to library preparation and high throughput sequencing on Illumina NovaSeq as signal-read 50 base reads following manufacturer's instructions. Sequenced samples were analyzed using nf-core RNAseq pipeline v1.3, quality controlled, trimmed, and aligned to the reference human genome using HISAT2. The identification and quantification of transcripts were performed using feature Counts from subread package. Differential expressed gene (DEG) analysis were done using DeSeq2.

MM047 = assay: Cell viability assay (PrestoBlue), 72h; conditions: Homo sapiens
Procedure: Cells were grown at 37°C in 5% CO2 (10% for Hermes 3A) and were regularly checked for mycoplasma contamination. […] Melanoma IGR cell lines (IGR37 and IGR39) were grown in RPMI w/o HEPES (Gibco, Invitrogen) supplemented with 15% FCS and gentamycin.
To determine the IC50 (half maximal inhibitory concentration) of these cells to various inhibitors, cell viability assays were performed.
After 72h of treatment with different concentrations of the compounds, cells were treated with PrestoBlue reagent according to the manufacturer's instructions. The absorbance per well was measured with a Cellinsight CX5 microplate reader. Data were analyzed using Prism9 statistical software.

[1] = system: IGR-37 melanoma xenografts; conditions: 1.2 mg/kg intravenous
Procedure: Female athymic nu/nu mice (Harlan Laboratories Models, S.L. Barcelona, Spain or Envigo, Spain) were utilized for all experiments. Animal were housed in individually ventilated cages Sealsafe® Plus, Techmplast S.P.A.), up to ten per cage on a 12-hour light-dark cycle at 21-23 °C and 40-60 % humidity. Mice were allowed free access to irradiated standard rodent diet (Tecklad 2914C) and sterilized water. Animals were acclimated for at least 5 days prior to tumor implantation with a tumor cell suspension.
The cell line used are: • 501mel • IGR-37 • SK-Mel-28 • WM-266-4 • LOX-IMVI • 501mel^Vemur
In xenograft studies with cell lines: • Tumour volume was calculated using the equation […], where a: length (longest diameter) and b: width (shortest diameter) were measured in mm by using digital caliper (Fowler Sylvac, S235PAT). Tumour dimensions and body weights were recorded 2-3 times per week starting from the first day of treatment. • When tumors reached ca. 150-250 mm^3, tumour bearing animals (N = 8-10/group) were randomly allocated into the treatment groups, based on body weight and tumour measurements by using NewLab Oncology Software (version 2.25.06.00). • Comparison between median tumour volume of treated and placebo groups was used for evaluation of the antitumoural efficacy. • Animals were euthanized when their tumours reached ca. 1,500 mm^3 and/or severe necrosis was seen.
Treatments producing >20 % lethality and/or 20% net body weight loss were considered toxic.
In these experiments, PM14 and Compound IA, as well as placebo, were intravenously administered once per week for 3 consecutive weeks, on days 0, 7 and 14, whenever it was possible.
Table 5. Tumour volume evaluation in IGR-37 melanoma xenografts with PM14 and Compound IA and placebo.

Structure (SMILES)	transcriptional effects compared to lurbinectedin (MM074 and MM029 cells)	IC50 (MM047) [nM]	Median Tumour Volume ([1]; days 0, 7 and 14, day 0) [mm^3]	Median Tumour Volume ([1]; days 0, 7 and 14, day 2) [mm^3]	Median Tumour Volume ([1]; days 0, 7 and 14, day 4) [mm^3]	Median Tumour Volume ([1]; days 0, 7 and 14, day 7) [mm^3]	Median Tumour Volume ([1]; days 0, 7 and 14, day 9) [mm^3]	Median Tumour Volume ([1]; days 0, 7 and 14, day 14)	Median Tumour Volume ([1]; days 0, 7 and 14, day 16)	Median Tumour Volume ([1]; days 0, 7 and 14, day 18)	Median Tumour Volume ([1]; days 0, 7 and 14, day 11) [mm^3]
COc1c(C)cc2c(c1O)[C@@H]1[C@@H]3[C@@H]4SC[C@]5(N[C@H](CO)Cc6c5oc5ccccc65)C(=O)OC[C@@H](c5c6c(c(C)c(OC(C)=O)c54)OCO6)N3[C@@H](O)[C@H](C2)N1C [Compound IA]	dissimilar and fewer genes being deregulated	1.38	150	236.5	377.5	608	886.9	1,163.9 mm^3	936.5 mm^3	1,027.6 mm^3	–
COc1c(C)cc2c(c1O)[C@@H]1[C@@H]3[C@@H]4SC[C@]5(N[C@H](CO)Cc6c5[nH]c5ccccc65)C(=O)OC[C@@H](c5c6c(c(C)c(OC(C)=O)c54)OCO6)N3[C@@H](O)[C@H](C2)N1C [PM14, ecubectedin]	–	0.96	150.4	216.6	326.3	544.5	704.9	1,127.4 mm^3	1,351.7 mm^3	1,594 mm^3	821.6
